Tests used:
hERG = target: T1, hERG (Homo sapiens, UniProt Q12809); experiment: hERG patch clamp electrophysiology (HEK-293-hERG); format: cell-based; conditions: for IC50: whole-cell patch clamp, HEK-293-hERG; for selectivity ratio: pH 7.35, hERG IC50 / hSLO3 IC50, read-out: hERG selectivity [fold] (SLO3 versus hERG)
T1 construct: expressed in transfected cells
Procedure: Whole-cell patch-clamp electrophysiology was used to record hERG currents from a stably transfected monoclonal cell line expressing human hERG. The HEK-293-hERG cell line was generously provided by Dr. David Weaver (Vanderbilt University). Cells were cultured in a 5% CO2 incubator at 37 °C, dissociated with 0.25% Trypsin-EDTA, and seeded onto 12 mm circular coverslips (Electron Microscopy Sciences, PA, USA) for same-day whole-cell patch-clamp recordings. hERG currents were recorded at room temperature by using an AxoPatch 200B amplifier with Clampex 10.7 software (Molecular Devices, USA). The voltage-clamp protocol consisted of a 4-s step to +30 mV from a −80 mV holding potential, followed by a 4-s step to −40 mV, repeated every 10 s. Data were sampled at 5 kHz and filtered at 1 kHz. Patch pipettes, pulled from 1.5 mm OD thin-walled capillaries (Warner Instruments, MA, USA) using a Sutter P-1000 puller (Sutter Instrument, CA, USA), had resistances of 2–3 MΩ when filled with intracellular solution containing (mM): 135 KCl, 10 HEPES, 1 EGTA, 2 MgCl2, 2 Na2ATP (pH 7.35, adjusted with KOH). The extracellular solution contained (mM): 135 NaCl, 5 KCl, 2 CaCl2, 1 MgCl2, 5 Glucose, 10 HEPES, and 10 Sucrose (pH 7.35, adjusted with NaOH). After establishing stable baseline hERG currents, cells were perfused with compounds at concentrations of 0.03–30 μM until response saturation (typically 2–8 min). Recordings concluded with a 10 μM Quinidine solution to isolate Quinidine-sensitive currents, with compound responses expressed as fractions of this current. Peak “tail” current amplitudes at the beginning of −40 mV steps were analyzed using Clampfit 11.2 (Molecular Devices). IC50 values were calculated by fitting the Hill equation to concentration–response curves (CRCs) using the built-in Y = Bottom + (Top – Bottom)/(1 + (IC50/X)^HillSlope) model (nonlinear regression fit: [Inhibitor] vs response – Variable slope (four parameters)) in GraphPad Prism 10.4 (GraphPad Software).

[1] = Intrinsic clearance in liver microsomes; format: in vitro ADME, rat; conditions: for Rat CLhep, % Hepatic blood flow: rat liver microsomes; for CLhep predicted at 1 μM: rat, liver microsomes, pH 7.4, rat liver microsomes, read-out: Rat CLhep (in vitro hepatic clearance from microsomal CLint)
Procedure: The in vitro intrinsic clearance (CLint) was investigated in commercially obtained hepatic microsomes from mouse, rat, and human donors using the substrate depletion (i.e., loss-of-parent vs time, or half-life (t 1/2) method) approach with analyte detection via liquid chromatography–tandem mass spectrometry (LC-MS/MS). For each species, mean %parent remaining values at each time point were calculated from replicate raw data (analyte:IS peak area ratios) and used to determine in vitro t 1/2 and CLint.
Experiments were carried out by using a robot-assisted liquid handler (Bravo with BenchCell, Agilent). The compound was incubated (1 μM final concentration) in buffer (100 mM potassium phosphate pH 7.4 with 3 mM MgCl2) containing hepatic microsomes (0.5 mg/mL final concentration) from each species, discretely, at 37 °C under constant orbital shaking. After 5 min (preincubation), reactions were initiated by the addition of nicotinamide adenine dinucleotide phosphate (NADPH, 1 mM final concentration). At selected time intervals (0, 3, 7, 15, 25, and 45 min) postaddition of NADPH, aliquots (50 μL) were taken and placed into a 96-shallow-well plate containing ice-cold acetonitrile (150 μL) with carbamazepine (IS, 50 nM). The plates were then centrifuged (3000 rcf at 4 °C) for 10 min. The supernatants were transferred to a new 96-shallow-well daughter plate and diluted (1:1 v/v) with water (Milli-Q filtered). The plates were then sealed for preparation for LC-MS/MS analysis (see below).
Analyte:IS peak area ratios generated by LC-MS/MS were used to construct natural log-transformed %parent remaining vs time plots (using t = 0 min post-NADPH addition sample data as the starting point set to 100%). In vitro compound t 1/2 values were calculated by using the following equation: t1/2=ln(2)/k where k is the slope from the linear regression analysis of the natural log-transformed data (using means from all replicates at each time point). Resulting t 1/2 values were then used to calculate hepatic CLint values according to the following equation and with the use of species-specific scale-up factors for liver weight (grams) per total body weight (kg): CLint=0.693/invitrot1/2×1mLincubation/0.5mgmicrosomes×45mgmicrosomes/1gramliver×garamliver/kgbodywt
^aScale-up factors used are 45 (rat) and 20 (human).
Predicted hepatic clearance (CLhep) was calculated by using the following equation: CLhep=Qh×CLint/Qh+CLint
Q h represents hepatic blood flow (mL/min/kg): 21 for humans, 70 for rats, and 90 for mouse.

[2] = human, HEK-293 cells stably expressing hERG

T1 sequence (Q12809 whole entry): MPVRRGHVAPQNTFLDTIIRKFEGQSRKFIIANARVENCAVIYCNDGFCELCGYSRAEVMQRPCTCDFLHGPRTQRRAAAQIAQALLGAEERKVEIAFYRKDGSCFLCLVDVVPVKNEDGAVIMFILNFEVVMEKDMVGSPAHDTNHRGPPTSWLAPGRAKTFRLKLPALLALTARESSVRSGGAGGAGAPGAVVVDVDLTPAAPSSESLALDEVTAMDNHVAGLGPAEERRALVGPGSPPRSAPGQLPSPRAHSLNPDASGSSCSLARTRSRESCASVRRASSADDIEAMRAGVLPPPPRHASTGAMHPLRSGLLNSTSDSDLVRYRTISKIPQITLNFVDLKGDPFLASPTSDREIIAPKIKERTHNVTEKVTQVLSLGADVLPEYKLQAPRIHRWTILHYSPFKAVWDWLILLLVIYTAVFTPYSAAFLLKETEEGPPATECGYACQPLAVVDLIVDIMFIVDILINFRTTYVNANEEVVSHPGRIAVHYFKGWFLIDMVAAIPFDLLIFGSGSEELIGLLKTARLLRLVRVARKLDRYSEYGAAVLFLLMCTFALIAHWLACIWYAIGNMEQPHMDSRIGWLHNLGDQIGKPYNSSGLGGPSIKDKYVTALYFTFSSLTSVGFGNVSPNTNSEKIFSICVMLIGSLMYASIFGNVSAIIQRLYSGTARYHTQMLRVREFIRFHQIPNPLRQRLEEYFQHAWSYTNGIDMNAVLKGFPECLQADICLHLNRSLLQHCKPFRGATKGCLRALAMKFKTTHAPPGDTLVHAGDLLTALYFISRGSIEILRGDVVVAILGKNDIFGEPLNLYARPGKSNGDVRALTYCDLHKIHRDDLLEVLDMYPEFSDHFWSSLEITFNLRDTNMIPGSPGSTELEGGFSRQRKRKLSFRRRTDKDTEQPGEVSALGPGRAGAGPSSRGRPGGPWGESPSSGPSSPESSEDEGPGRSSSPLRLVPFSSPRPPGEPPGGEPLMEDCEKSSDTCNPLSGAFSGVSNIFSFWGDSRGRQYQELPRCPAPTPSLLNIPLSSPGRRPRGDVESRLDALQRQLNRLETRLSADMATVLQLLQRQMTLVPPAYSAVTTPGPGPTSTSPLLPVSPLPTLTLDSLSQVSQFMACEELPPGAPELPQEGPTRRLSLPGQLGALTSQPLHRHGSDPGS

Compound | IC50 (hERG) [µM] | Rat CLhep, % Hepatic blood flow [1] [%] | CLhep predicted at 1 μM [1] [mL/min/kg] | selectivity ratio (hERG; [2]) | IC50 (hERG; human, HEK-293 cells stably expressing hERG, pH 7.35) [µM]
Cc1cc(Cl)cc2sc(O[C@@H]3CCN(C(=O)CCCS(=O)(=O)c4cccc(Br)c4)C[C@H]3F)nc12 [VU6047607] | 17 | 76 | 53.5 |  | 
Cc1cc(Cl)cc2sc(O[C@@H]3CCN(C(=O)CCCS(=O)(=O)c4cccc(Br)c4)C[C@@H]3F)nc12 [VU6047608] |  | 72 | 50.5 |  | 
Cc1cc(Cl)cc2sc(OC3CCN(C(=O)CCCS(=O)(=O)c4cccc(Br)c4)CC3F)nc12 (stereo not drawn) [VU6045330] | 73.3 |  |  | 555 | 
Cc1cc(Cl)cc2sc(O[C@H]3CCN(C(=O)CCCS(=O)(=O)c4cccc(Br)c4)C[C@@H]3F)nc12 [VU6047609] | 56 | 89 | 62.4 |  | 
Cc1cc(Cl)cc2sc(O[C@H]3CCN(C(=O)CCCS(=O)(=O)c4cccc(Br)c4)C[C@H]3F)nc12 [VU6047606] | 12 | 71 | > 46 |  | 12.7
O=C(c1ccc(OCc2ccc(OC(F)(F)F)cc2)cc1)N1CCN(c2ccc(C(F)(F)F)cn2)CC1 [VU6032735] | 28.3 | 23 | 16.2 | 172 | 

Reference: publication PMC12441834, “Highly Potent and Subtype-Selective Sperm-Specific Potassium Channel SLO3 Inhibitors Display High Tissue Exposure in the Murine Female Reproductive Tract” (ACS Pharmacology & Translational Science, 2025)
